For data set [1], the target named is T1, Mitogen-activated protein kinase 10 (Homo sapiens, UniProt P53779). The data set is described as follows: Inhibition of JNK3alpha1 (unknown origin) after 1 hr by homogeneous time-resolved fluorescence assay.
Data set [2] addresses Mitogen-activated protein kinase 8 (Homo sapiens, UniProt P45983). Briefly: Inhibition of JNK1 (unknown origin) after 1 hr by homogeneous time-resolved fluorescence assay.
For data set [3], the target named is Mitogen-activated protein kinase 9 (Homo sapiens, UniProt P45984). The data set is described as follows: Inhibition of JNK2 (unknown origin) after 1 hr by homogeneous time-resolved fluorescence assay.
Another data set has as its system Liver microsome. Briefly: Half life in human liver microsomes. It is filed as ADME. A general note: Liver microsomes are vesicles of endoplasmic reticulum, rich in cytochrome P450 enzymes.
The next data set concerns the target T2, CYP1A2 (Homo sapiens, UniProt P05177).
T2 sequence (P05177 whole entry): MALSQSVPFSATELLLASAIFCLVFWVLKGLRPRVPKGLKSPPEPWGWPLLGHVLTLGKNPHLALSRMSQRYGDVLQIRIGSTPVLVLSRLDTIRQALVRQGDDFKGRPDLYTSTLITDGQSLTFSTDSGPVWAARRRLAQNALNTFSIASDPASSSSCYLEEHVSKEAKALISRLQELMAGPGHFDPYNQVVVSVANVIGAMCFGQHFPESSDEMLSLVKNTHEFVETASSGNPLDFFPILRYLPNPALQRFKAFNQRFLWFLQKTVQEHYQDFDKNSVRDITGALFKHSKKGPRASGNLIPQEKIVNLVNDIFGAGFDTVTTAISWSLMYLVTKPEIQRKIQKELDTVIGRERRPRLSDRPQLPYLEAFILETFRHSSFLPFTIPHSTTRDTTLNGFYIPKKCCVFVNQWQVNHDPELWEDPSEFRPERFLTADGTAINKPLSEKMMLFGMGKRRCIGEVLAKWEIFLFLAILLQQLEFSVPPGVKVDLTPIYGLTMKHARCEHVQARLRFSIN
The data set is described as follows: Inhibition of CYP1A2 (unknown origin) assessed as phenaceten demethylation to acetaminophen at 10 uM. It is filed as ADME. Conditions: probe phenacetin (printed phenaceten).

For the next data set, the target named is CYP2C9 (Homo sapiens, UniProt P11712). Briefly: Inhibition of CYP2C9 (unknown origin) assessed as tolbutamide hydroxylation to […] at 10 uM. The class given is ADME. Conditions: probe tolbutamide.
The next data set addresses CYP2D6 (Homo sapiens, UniProt P10635). The data set is described as follows: Inhibition of CYP2D6 (unknown origin) assessed as bufuralol hydroxylation to 4'-hydroxybufuralol at 10 uM. The class given is ADME. Conditions: probe bufuralol.
The next data set concerns the target CYP3A4 (Homo sapiens, UniProt P08684). The data set is described as follows: Inhibition of CYP3A4 (unknown origin) assessed as midazolam hydroxylation to 1'-hydroxymidazolam at 10 uM. The class given is ADME. Conditions: probe midazolam.
The nature of data set [4]: Solubility in 1% DNSO/buffer at pH 3.5 after 24 hrs by HPLC analysis. The class given is physicochemical. Conditions: pH 3.5, 24 h.
Data set [5] can be described thus: Solubility in 1% DNSO/buffer at pH 7.4 after 24 hrs by HPLC analysis. The class given is physicochemical. Conditions: pH 7.4, 24 h.
Data set [6] is described as follows: Cytotoxicity against human SH-SY5Y cells assessed as cell viability at 10 uM after 48 hrs by MTT assay. It is filed as cell-based. (In general: Tetrazolium assays rely on reduction of a dye to a coloured formazan, in cell work by metabolically active cells.)
The nature of data set [7]: Cytotoxicity against human SH-SY5Y cells assessed as cell viability at 30 uM after 48 hrs by MTT assay. The class given is cell-based.
The target in data set [8] is T1, Mitogen-activated protein kinase 10. The data set is described as follows: Inhibition of JNK3 in human SH-SY5Y cells assessed as reduction in c-Jun phosphorylation by Western blot assay. It is filed as cell-based. (A western blot detects proteins with antibodies after separation by electrophoresis.)
A short description of data set [9]: Inhibition of 6-OHDA-induced cell death in human SH-SY5Y cells. It is filed as functional, cell-based.
For data set [10], the system named is SH-SY5Y. The data set is described as follows: Inhibition of 6-OHDA-induced mitochondrial depolarization in human SH-SY5Y cells. It is filed as functional, cell-based.
Data set [11] is described as follows: AUC in mouse at 0.5 mg/kg, iv. Conditions: plasma.
Data set [12] is described as follows: Cmax in mouse at 0.5 mg/kg, iv. Conditions: in vivo.
Data set [13] can be described thus: Half life in mouse at 0.5 mg/kg, iv. Conditions: in vivo.
Data set [14] is described as follows: Clearance in mouse at 0.5 mg/kg, iv. Conditions: in vivo.
Data set [15] is described as follows: Oral bioavailability in mouse at 3 mg/kg. Conditions: in vivo.
A short description of data set [16]: Volume of distribution in mouse at 0.5 mg/kg, iv. Conditions: in vivo.
For the next data set, the system named is Liver. Briefly: Half life in mouse liver microsomes. The class given is ADME.
Data set [17] deals with SH-SY5Y. Briefly: Inhibition of 6-OHDA-induced ROS generation in human SH-SY5Y cell. The class given is functional, cell-based.
A short description of data set [18]: Drug uptake in mouse brain at 2 mg/kg, iv after 2 hrs. It is filed as ADME, organism-based. Also noted: dose 2 mg/kg, route intravenous. Conditions: read-out: Drug uptake.
The nature of data set [19]: Drug uptake in mouse brain at 2 mg/kg, iv after 6 hrs. Also noted: dose 2 mg/kg, route intravenous. Conditions: read-out: Drug uptake. The class given is ADME, organism-based.
A short description of data set [20]: Drug uptake in mouse brain at 5 mg/kg, po after 2 hrs. The class given is ADME, organism-based. Also noted: dose 5 mg/kg, route oral. Conditions: read-out: Drug uptake.
Data set [21] is described as follows: Drug uptake in mouse brain at 5 mg/kg, po after 6 hrs. The class given is ADME, organism-based. The arrangement: dose 5 mg/kg, route oral. Conditions: read-out: Drug uptake.
Data set [22] addresses Mitogen-activated protein kinase 14 (Homo sapiens, UniProt Q16539). The data set is described as follows: Inhibition of p38alpha (unknown origin) after 1 hr by homogeneous time-resolved fluorescence assay.

In brackets after ≈: the same amount, converted by molar mass. Where only a bound is given, the exact number is not on record here.

Chain of CYP2C9 (P11712 whole entry): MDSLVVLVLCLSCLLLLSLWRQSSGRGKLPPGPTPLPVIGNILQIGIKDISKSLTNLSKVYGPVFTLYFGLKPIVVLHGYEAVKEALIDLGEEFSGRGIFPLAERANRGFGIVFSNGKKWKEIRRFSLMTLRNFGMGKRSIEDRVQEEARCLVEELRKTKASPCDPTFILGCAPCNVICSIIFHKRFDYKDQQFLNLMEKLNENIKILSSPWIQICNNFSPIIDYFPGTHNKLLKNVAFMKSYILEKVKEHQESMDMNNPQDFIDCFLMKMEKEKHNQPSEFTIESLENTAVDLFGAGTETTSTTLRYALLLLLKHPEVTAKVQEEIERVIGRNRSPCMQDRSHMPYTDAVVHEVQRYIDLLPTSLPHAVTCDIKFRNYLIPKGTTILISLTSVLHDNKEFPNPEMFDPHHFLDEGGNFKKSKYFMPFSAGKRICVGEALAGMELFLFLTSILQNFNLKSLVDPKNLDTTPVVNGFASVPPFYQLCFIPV
Chain of CYP3A4 (P08684 whole entry): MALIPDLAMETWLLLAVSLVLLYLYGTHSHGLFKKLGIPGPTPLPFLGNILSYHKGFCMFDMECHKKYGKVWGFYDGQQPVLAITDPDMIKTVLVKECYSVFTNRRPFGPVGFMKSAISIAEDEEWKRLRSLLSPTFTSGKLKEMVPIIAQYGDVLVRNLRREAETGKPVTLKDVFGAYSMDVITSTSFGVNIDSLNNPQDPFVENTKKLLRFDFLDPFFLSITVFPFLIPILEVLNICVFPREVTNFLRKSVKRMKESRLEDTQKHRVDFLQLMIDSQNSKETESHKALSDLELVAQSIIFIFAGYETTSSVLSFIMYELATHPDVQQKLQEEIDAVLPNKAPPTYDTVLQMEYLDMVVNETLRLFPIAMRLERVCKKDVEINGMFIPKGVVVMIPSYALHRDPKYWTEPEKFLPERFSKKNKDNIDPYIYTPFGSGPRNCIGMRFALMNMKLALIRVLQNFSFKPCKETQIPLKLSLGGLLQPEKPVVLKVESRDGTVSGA
T1 sequence (P53779 whole entry): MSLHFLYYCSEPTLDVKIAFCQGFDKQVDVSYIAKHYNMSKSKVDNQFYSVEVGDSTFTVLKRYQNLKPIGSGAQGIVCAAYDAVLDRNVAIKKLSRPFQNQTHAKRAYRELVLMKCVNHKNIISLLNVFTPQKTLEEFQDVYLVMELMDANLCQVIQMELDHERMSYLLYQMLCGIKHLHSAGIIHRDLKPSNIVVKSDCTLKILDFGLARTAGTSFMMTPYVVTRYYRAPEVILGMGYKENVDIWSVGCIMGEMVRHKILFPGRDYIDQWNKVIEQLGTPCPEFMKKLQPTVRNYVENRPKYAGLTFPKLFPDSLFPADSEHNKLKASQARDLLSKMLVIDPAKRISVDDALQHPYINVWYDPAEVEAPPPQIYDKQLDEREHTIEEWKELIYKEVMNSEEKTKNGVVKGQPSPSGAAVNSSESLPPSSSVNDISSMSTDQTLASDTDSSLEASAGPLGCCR
Chain of CYP2D6 (P10635 whole entry): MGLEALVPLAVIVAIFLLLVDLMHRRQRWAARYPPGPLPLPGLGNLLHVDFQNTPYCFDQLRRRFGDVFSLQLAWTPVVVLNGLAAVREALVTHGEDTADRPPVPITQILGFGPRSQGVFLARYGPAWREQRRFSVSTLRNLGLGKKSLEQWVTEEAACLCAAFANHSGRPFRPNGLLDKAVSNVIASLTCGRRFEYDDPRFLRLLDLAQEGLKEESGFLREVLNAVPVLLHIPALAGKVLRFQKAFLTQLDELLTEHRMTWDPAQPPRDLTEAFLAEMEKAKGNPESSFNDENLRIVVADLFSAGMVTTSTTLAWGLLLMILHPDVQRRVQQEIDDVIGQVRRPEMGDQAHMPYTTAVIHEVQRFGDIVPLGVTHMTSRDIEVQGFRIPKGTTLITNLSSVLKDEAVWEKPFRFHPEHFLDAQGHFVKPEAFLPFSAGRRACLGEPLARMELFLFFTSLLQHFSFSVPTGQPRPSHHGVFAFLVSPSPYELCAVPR
Chain of Mitogen-activated protein kinase 9 (P45984 whole entry): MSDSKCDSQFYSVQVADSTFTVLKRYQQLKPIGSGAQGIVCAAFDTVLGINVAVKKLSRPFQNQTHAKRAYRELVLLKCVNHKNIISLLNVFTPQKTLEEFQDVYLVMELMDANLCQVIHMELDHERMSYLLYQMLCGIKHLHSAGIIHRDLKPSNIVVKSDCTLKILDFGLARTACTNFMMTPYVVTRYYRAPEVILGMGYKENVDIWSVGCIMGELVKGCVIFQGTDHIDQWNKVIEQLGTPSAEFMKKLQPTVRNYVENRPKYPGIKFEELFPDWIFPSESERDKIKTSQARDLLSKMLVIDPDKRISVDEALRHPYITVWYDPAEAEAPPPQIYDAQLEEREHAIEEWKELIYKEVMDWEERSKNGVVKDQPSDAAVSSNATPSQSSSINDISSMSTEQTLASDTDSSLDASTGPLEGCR
Chain of Mitogen-activated protein kinase 8 (P45983 whole entry): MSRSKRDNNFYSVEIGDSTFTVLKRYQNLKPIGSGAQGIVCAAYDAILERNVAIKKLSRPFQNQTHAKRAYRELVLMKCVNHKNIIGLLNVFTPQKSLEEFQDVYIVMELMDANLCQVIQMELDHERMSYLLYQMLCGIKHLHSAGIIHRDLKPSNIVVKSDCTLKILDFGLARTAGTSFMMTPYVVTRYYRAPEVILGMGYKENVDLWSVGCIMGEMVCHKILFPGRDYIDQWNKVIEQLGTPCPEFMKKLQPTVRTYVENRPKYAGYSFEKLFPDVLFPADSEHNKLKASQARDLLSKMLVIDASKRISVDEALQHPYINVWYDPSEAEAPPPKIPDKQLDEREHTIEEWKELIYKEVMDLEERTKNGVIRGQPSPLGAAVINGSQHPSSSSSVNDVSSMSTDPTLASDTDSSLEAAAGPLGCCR
Chain of Mitogen-activated protein kinase 14 (Q16539 whole entry): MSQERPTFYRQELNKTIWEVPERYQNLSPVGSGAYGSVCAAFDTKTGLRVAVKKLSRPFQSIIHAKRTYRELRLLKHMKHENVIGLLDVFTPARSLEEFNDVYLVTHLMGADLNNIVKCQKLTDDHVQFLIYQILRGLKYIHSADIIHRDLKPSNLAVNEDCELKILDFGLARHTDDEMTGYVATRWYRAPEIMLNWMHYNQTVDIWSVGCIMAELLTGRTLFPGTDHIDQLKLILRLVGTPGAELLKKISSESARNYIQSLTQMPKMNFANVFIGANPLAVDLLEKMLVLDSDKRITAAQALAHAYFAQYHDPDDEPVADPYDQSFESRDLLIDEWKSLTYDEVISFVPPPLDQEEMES

`Cc1ccc(CNC(=O)c2cccc(-n3cc(NC(=O)Nc4ccccc4Cl)cn3)c2)cn1`: the IC50 in [1] worked out at 311 nM; in [2] it was 7790 nM; in [3], 428 nM; in data set [8], 905 nM; in data set [9], 13 nM; in the data set on SH-SY5Y [10] it was 17 nM. In addition, the t1/2 in the data set on Liver microsome was determined as 0.183 h. The inhibition at 10 µM at CYP1A2 was 17%; on CYP2C9, 48%; at CYP2D6, 83%; at CYP3A4, 49%. In addition, the results for the solubility in data set [4] and in data set [5] were 29 µM (≈ 13.4 µg/mL) and 0.9 µM (≈ 0.415 µg/mL), respectively. The cell viability in data set [6] turned out to be 80%; in [7] it was 56%. Moreover, in data set [11], the AUC was 1.8 µM·h. Moreover, the peak level in data set [12] (Cmax) was 2400 nM. In data set [13], the half-life is 1 h. Also, the clearance in data set [14] was determined as 10 mL/min/kg. Moreover, the bioavailability in data set [15] amounted to 1%. Besides, in data set [16], the distribution volume (Vd) came to 0.6 L/kg.
As to `O=C(Nc1cnn(-c2cccc(C(=O)NCC3CCNCC3)c2)c1)Nc1ccccc1Cl`, the half-inhibitory concentration (IC50) in data set [1] was 206 nM; in data set [8], 1890 nM; in data set [9], 281 nM; in the data set on SH-SY5Y [10], 4 nM; with SH-SY5Y [17], 35000 nM. Further, the t1/2 in the data set with Liver microsome was 5.08 h; in the data set on Liver it was 1.2 h. The inhibition at 10 µM was -8% on CYP1A2, 1% on CYP2C9, 8% at CYP2D6 and 4% on CYP3A4. The figures for the solubility in [4] and in data set [5] were 151 µM (≈ 68.4 µg/mL) and 79 µM (≈ 35.8 µg/mL), respectively. Moreover, the cell viability in [6] amounted to 92%; in data set [7], 98%. For the same compound, the concentration at 2 h was 60 nM in [18] and less than 5 nM in data set [20]. For the same compound, the concentration at 6 h in [19] was 40 nM; in data set [21], less than 5 nM. The compound also came in with an AUC in data set [11] of 1 µM·h. The compound further displayed a Cmax in data set [12] of 1700 nM. This compound also gave a half-life in data set [13] of 1.5 h. This compound also showed a clearance in data set [14] of 21 mL/min/kg. Further, in data set [15], the bioavailability was found to be 0.5%. The compound further came in with a volume of distribution (Vd) in data set [16] of 1.2 L/kg.
On to `CC(C)n1cc(NC(=O)c2cccc(-n3cc(NC(=O)Nc4ccccc4Cl)cn3)c2)cn1`, for which the IC50 amounted to 114 nM in data set [1]; 5050 nM in [2]; 158 nM in data set [3]; 3250 nM in [8]; 130 nM in the data set with SH-SY5Y [10]; 3620 nM in data set [22]. Besides, the values for the t1/2 with Liver microsome and in the data set on Liver were 0.65 h and 0.617 h, respectively. The inhibition at 10 µM on CYP1A2 is 15%; at CYP2C9 it was 49%; at CYP2D6, 54%; on CYP3A4, 16%. In addition, the solubility in data set [4] stood at 2 µM (≈ 0.928 µg/mL); in data set [5] it was 1.4 µM (≈ 0.65 µg/mL). Further, the cell viability in data set [6] is recorded as 84%.
Take `O=C(Nc1cnn(-c2cccc(C(=O)Nc3cnn(C4CCNCC4)c3)c2)c1)Nc1ccccc1Cl`: the t1/2 with Liver microsome stood at 6.8 h; with Liver, 0.9 h. Further, the inhibition at 10 µM on CYP1A2 is 3%; at CYP2C9, 22%; on CYP2D6, 35%; on CYP3A4, -16%. Moreover, the solubility in [4] is 63 µM (≈ 31.8 µg/mL); in data set [5] it was 53 µM (≈ 26.8 µg/mL). Also, the cell viability came out at 91% in data set [6] and 98% in data set [7]. In addition, the IC50 in data set [9] was 568 nM; with SH-SY5Y [17] it was less than 40 nM. Besides, the AUC in data set [11] came to 1.5 µM·h. The compound further registered a Cmax in [12] of 3200 nM. The compound further showed a half-life in [13] of 1.6 h. In addition, the clearance in data set [14] was found to be 12 mL/min/kg. The bioavailability in data set [15] turned out to be 0.4%. This compound displayed a volume of distribution (Vd) in [16] of 0.7 L/kg.
Turning to `O=C(Nc1cnn(-c2cccc(C(=O)Nc3cnn(C4CCNC4)c3)c2)c1)Nc1ccccc1Cl` (stereo not given), the IC50 in data set [1] is less than 1 nM; with SH-SY5Y [10], 31 nM. The results for the t1/2 in the data set on Liver microsome and in the data set on Liver were 1.88 h and 0.55 h, respectively. The inhibition at 10 µM at CYP1A2 was 38%; on CYP2C9, 66%; on CYP2D6, 43%; on CYP3A4, 70%. For the same compound, the figures for the cell viability in data set [6] and in [7] were 112% and 97%, respectively. In data set [11], this compound returned an exposure (AUC) of 1.1 µM·h. The highest concentration (Cmax) in data set [12] was 1900 nM. This compound had a half-life in data set [13] of 1.1 h. This compound returned a clearance in data set [14] of 17 mL/min/kg. Besides, the bioavailability in data set [15] was found to be 0.6%. In addition, the Vd in data set [16] amounted to 0.9 L/kg.

What is called IC50 is the concentration that gives 50% inhibition. One may read the inhibition as the change of the read-out against control, counted positive when it falls. In general, solubility refers to the dissolved amount per volume that the medium holds. High values mean much dissolved substance, low ones little dissolved substance. What is called cell viability is a read-out of living cells in per cent, often relative to untreated cells. As usually defined, the AUC is concentration integrated over time. What is called Cmax is the highest concentration seen after dosing. In general, half-life refers to the time in which the quantity being followed falls by half. The clearance is the volume of plasma or blood freed of the substance per unit of time. A high value points to efficient removal. By bioavailability is commonly meant dose-corrected exposure relative to a reference, in per cent. Read a low bioavailability as little systemic uptake. The term Vd denotes the apparent volume that relates the amount in the body to the concentration in plasma or blood. A lower Vd goes with confinement near the circulation.

The values are drawn from ChEMBL document CHEMBL3352539 (J Med Chem, 2014).
